Columns and labels:
CYP2B6 [1] = target: T1, CYP2B6 (Homo sapiens, UniProt P20813); conditions: 50 μM (with 1% methanol)
T1 sequence (P20813 1-491): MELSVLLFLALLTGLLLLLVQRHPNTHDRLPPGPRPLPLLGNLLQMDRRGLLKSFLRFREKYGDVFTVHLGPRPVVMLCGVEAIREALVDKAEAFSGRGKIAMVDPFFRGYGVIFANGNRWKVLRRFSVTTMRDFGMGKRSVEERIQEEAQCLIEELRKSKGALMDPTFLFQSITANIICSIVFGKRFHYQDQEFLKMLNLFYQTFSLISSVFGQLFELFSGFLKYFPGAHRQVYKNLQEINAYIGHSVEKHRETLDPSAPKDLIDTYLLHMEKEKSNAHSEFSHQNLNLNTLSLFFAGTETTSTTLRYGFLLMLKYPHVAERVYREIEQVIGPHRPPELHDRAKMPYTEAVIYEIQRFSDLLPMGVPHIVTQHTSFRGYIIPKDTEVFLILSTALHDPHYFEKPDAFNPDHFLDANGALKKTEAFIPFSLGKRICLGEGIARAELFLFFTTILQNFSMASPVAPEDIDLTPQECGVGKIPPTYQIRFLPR
Protocol: All incubations were carried out in triplicates.

CYP2C8 = format: in vitro ADME; conditions: 50 μM megestrol acetate, microsomes, quercetin
CYP2C9 = CYP2C9 (Homo sapiens, UniProt P11712); format: in vitro ADME; conditions: 50 μM megestrol acetate, microsomes
Sequence of CYP2C9 (P11712 whole entry): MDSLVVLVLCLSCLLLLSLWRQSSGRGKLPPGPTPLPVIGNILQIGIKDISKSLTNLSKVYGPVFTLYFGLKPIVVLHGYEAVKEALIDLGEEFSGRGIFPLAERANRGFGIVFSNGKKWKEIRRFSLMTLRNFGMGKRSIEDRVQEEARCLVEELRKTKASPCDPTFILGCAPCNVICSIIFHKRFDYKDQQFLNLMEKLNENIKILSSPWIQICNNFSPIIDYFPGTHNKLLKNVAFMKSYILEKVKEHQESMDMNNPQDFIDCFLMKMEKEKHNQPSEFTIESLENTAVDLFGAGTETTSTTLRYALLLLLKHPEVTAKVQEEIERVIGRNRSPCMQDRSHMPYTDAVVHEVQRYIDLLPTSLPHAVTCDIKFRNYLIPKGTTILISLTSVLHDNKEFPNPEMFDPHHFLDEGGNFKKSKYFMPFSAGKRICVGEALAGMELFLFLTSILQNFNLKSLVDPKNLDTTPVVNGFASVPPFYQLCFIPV

CYP2C19 [2] = target: T2, CYP2C19 (Homo sapiens, UniProt P33261); format: in vitro ADME; conditions: 50 μM megestrol acetate, microsomes
T2 sequence (P33261 whole entry): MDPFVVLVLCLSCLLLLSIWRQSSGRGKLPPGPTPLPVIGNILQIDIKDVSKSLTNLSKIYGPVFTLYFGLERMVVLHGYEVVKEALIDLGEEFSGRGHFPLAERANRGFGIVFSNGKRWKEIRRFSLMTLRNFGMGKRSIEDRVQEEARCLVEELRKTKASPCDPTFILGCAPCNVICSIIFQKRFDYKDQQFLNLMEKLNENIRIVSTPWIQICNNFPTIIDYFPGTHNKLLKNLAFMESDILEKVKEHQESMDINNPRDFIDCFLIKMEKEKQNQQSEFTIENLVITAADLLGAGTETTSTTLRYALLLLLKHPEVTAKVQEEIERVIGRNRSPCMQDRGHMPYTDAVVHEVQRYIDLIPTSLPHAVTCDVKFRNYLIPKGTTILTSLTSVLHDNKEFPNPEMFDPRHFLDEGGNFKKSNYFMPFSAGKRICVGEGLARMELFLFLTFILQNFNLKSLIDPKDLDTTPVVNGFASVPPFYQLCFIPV

CYP2D6 [3] = target: T3, CYP2D6 (Homo sapiens, UniProt P10635); format: in vitro ADME; conditions: 50 μM megestrol acetate, microsomes
T3 sequence (P10635 whole entry): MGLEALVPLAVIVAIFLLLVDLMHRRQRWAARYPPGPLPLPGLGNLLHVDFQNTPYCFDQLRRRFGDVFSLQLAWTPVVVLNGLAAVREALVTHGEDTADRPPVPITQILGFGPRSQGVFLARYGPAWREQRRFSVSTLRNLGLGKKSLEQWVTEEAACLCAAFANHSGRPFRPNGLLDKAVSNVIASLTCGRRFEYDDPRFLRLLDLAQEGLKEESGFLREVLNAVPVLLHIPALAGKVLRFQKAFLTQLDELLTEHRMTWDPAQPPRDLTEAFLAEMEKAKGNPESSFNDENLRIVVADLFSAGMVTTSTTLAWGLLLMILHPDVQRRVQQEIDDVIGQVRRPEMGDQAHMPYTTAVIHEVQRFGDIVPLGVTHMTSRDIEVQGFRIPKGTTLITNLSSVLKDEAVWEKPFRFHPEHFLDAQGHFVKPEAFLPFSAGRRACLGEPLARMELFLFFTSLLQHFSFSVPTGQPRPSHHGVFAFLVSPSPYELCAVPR

CYP1A2 = target: T4, CYP1A2 (Homo sapiens, UniProt P05177); format: in vitro ADME; parameters: purchased BD Biosciences Discovery Labware, Woburn, Mass; host or cells: baculovirus-infected insect cells; conditions: 50 μM megestrol acetate, 20 pmol CYP1A2
T4 sequence (P05177 1-516): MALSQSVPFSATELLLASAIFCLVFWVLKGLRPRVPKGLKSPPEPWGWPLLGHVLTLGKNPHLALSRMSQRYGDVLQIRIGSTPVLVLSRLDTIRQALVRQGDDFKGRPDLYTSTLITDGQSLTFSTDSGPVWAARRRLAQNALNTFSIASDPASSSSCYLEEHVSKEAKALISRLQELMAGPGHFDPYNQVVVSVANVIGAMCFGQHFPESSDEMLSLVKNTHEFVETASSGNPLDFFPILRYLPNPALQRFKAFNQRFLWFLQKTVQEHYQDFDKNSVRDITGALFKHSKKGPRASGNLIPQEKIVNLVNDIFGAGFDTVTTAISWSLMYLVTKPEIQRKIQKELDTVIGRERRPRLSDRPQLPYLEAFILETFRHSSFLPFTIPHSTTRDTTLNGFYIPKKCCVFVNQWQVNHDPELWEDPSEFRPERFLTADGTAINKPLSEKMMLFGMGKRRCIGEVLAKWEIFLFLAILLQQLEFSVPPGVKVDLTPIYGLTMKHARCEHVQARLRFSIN

CYP2A6 = target: T5, CYP2A6 (Homo sapiens, UniProt P11509); format: in vitro ADME; parameters: purchased BD Biosciences Discovery Labware, Woburn, Mass; host or cells: baculovirus-infected insect cells; conditions: 50 μM megestrol acetate, 20 pmol CYP2A6
T5 sequence (P11509 1-494): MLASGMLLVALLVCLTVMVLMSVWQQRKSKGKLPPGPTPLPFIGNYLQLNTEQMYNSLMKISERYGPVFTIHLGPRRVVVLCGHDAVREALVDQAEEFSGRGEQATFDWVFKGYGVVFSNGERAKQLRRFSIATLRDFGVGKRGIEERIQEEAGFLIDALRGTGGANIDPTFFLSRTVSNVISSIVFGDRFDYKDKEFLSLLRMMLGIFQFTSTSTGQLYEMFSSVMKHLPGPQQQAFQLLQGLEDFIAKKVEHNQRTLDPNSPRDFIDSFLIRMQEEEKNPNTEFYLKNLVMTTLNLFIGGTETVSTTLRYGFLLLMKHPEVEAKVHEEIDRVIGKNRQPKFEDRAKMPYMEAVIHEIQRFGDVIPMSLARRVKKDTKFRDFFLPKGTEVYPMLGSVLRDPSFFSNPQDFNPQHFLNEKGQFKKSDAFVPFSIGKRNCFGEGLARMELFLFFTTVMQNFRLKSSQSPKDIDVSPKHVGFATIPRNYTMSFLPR

CYP2B6 [4] = target: T1, CYP2B6; format: in vitro ADME; parameters: purchased BD Biosciences Discovery Labware, Woburn, Mass; host or cells: baculovirus-infected insect cells; conditions: 50 μM megestrol acetate, 20 pmol CYP2B6
CYP2C19 [5] = target: T2, CYP2C19; format: in vitro ADME; parameters: purchased BD Biosciences Discovery Labware, Woburn, Mass; host or cells: baculovirus-infected insect cells; conditions: 50 μM megestrol acetate, 20 pmol CYP2C19
CYP2D6 [6] = target: T3, CYP2D6; format: in vitro ADME; parameters: purchased BD Biosciences Discovery Labware, Woburn, Mass; host or cells: baculovirus-infected insect cells; conditions: 50 μM megestrol acetate, 20 pmol CYP2D6
CYP2E1 = CYP2E1 (Homo sapiens, UniProt P05181); format: in vitro ADME; parameters: purchased BD Biosciences Discovery Labware, Woburn, Mass; host or cells: baculovirus-infected insect cells; conditions: 50 μM megestrol acetate, 20 pmol CYP2E1
Sequence of CYP2E1 (P05181 whole entry): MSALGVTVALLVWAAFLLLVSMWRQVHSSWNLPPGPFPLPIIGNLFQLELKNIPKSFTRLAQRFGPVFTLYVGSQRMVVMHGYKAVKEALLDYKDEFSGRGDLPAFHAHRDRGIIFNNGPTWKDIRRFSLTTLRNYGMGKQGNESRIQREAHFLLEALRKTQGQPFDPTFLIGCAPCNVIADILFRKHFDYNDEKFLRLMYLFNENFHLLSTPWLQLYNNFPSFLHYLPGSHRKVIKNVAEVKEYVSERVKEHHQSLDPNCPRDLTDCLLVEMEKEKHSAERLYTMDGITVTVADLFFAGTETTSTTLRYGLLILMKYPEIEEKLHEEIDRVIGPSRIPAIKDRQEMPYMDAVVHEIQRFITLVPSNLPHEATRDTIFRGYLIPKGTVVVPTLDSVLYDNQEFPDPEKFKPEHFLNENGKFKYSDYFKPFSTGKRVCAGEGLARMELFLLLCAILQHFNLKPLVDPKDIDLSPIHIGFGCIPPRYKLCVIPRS

## CC(=O)O[C@]1(C(C)=O)CC[C@H]2[C@@H]3C=C(C)C4=CC(=O)CC[C@]4(C)[C@H]3CC[C@@]21C [Megestrol Acetate, 17 α-acetyloxy-6-methylpregna-4,6-diene-3,20-dione]
CYP2B6 [1]
  Percent of Parent Disappearance Individual: 54.8%
CYP2C8
  difference in metabolism in the presence or absence of the inhibitor (LC/MS): a significant difference in metabolism
CYP2C9
  difference in metabolism in the presence or absence of the inhibitor (LC/MS): no significant difference in metabolism
CYP2C19 [2]
  difference in metabolism in the presence or absence of the inhibitor (LC/MS): no significant difference in metabolism
CYP2D6 [3]
  difference in metabolism in the presence or absence of the inhibitor (LC/MS): no significant difference in metabolism
CYP1A2
  metabolism based on analysis of metabolites formed: < 1%
CYP2A6
  metabolites formed: no metabolites were formed
CYP2B6 [4]
  metabolites observed: 1.23%
CYP2C19 [5]
  metabolites detected: 1.14%
CYP2D6 [6]
  metabolites formed: no metabolites were detected
CYP2E1
  metabolites formed: no metabolites were detected

Reference: US8067042B1 (Mutual Pharmaceutical Company, Inc., priority 2007, dated 2011)
